Columns and labels:
[1] = Antifungal properties of films containing caprylic fatty acid; settings: dried film
[2] = Antibacterial properties of films and mini-emulsions containing caprylic fatty acid
[3] = Anti-microbial effect of mini-emulsion/film compositions with sodium hypochlorite; settings: provided in the mini-emulsion/film compositions, preferably between about 0.1 and about 0.5% by weight of solids

Compound: CCCCCCCC(=O)O [caprylic fatty acid]
- antifungal properties [1]: broad spectrum antifungal properties
- antibacterial effect ([2]; dried film): mild antibacterial effect
- antibacterial properties ([2]; liquid mini-emulsion): broad spectrum antibacterial properties

Compound: OCl [sodium hypochlorite]
- anti-microbial effect [3]: effective as a broad spectrum anti-microbial
